Source: patent US11203601B2, “Tricyclic compounds as glycogen synthase kinase 3 (GSK3) inhibitors and uses thereof” (The Broad Institute, Inc., priority 2017, dated 2021)

Columns and labels:
Assay in all cases: Carna kinome panel
Type in all cases: biochemical
GSK3β = GSK3β (Homo sapiens (Human), UniProt P49841)
Method: A selection of compounds was screened against a selected panel of kinases based on single point inhibitory ability to determine absolute inhibitory activity, leading to selectivity measurements. The assay utilized was identical to that of the single point inhibitory activity determination (MSA) but run in dose response. A solution of 4× inhibitor (5 μL), 4× substrate/ATP Metal solution (5 μL), and 2× Kinase solution (10 μL) was prepared with assay buffer (20 mM HEPES, 0.01% Triton X-100, 2 mM DTT, pH 7.5) and mixed/incubated in 384 well plates for 1 or 5 hours depending on the kinase, at room temperature. A solution of termination buffer (QuickScout Screening assist MSA; Carna Biosciences) (60 μL) was added to each well. The entire reaction mixture was then applied to a LabChip3000 system (Caliper Life Science) and the product and substrate peptide peaks were separated and quantified.
Briefly, a selection of compounds was screened against a panel of kinases at a single concentration of 10 μM. […] The entire reaction mixture was then applied to a LabChip3000 system (Caliper Life Science), and the product and substrate peptide peaks were separated and quantified. […] The entire reaction mixture was then applied to a LabChip3000 system (Caliper Life Science), and the product and substrate peptide peaks were separated and quantified.

EGFR = EGFR (Homo sapiens (Human), UniProt P00533); conditions: read-out: % Inhibition at 10 μM of the test compound
FGR = FGR (Homo sapiens (Human), UniProt P09769); conditions: read-out: % Inhibition at 10 μM of the test compound
skMLCK = skMLCK (Homo sapiens (Human), UniProt Q9H1R3); conditions: read-out: % Inhibition at 10 μM of the test compound
PKCη = PKCη (Homo sapiens (Human), UniProt P24723); conditions: read-out: % Inhibition at 10 μM of the test compound
TNIK = TNIK (Homo sapiens (Human), UniProt Q9UKE5); conditions: read-out: % Inhibition at 10 μM of the test compound
MLK3_Cascade = MLK3_Cascade (Homo sapiens (Human), UniProt Q16584); conditions: read-out: % Inhibition at 10 μM of the test compound
ROCK1 = ROCK1 (Homo sapiens (Human), UniProt Q13464); conditions: read-out: % Inhibition at 10 μM of the test compound
PAK6 = PAK6 (Homo sapiens (Human), UniProt Q9NQU5); conditions: read-out: % Inhibition at 10 μM of the test compound
MAP3K2_Cascade = MAP3K2_Cascade (Homo sapiens (Human), UniProt Q9Y2U5); conditions: read-out: % Inhibition at 10 μM of the test compound
YES = YES (Homo sapiens (Human), UniProt P07947); conditions: read-out: % Inhibition at 10 μM of the test compound
CaMK2β = CaMK2β (Homo sapiens (Human), UniProt Q13554); conditions: read-out: % Inhibition at 10 μM of the test compound
PKD3 = PKD3 (Homo sapiens (Human), UniProt O94806); conditions: read-out: % Inhibition at 10 μM of the test compound
IKKβ = IKKβ (Homo sapiens (Human), UniProt O14920); conditions: read-out: % Inhibition at 10 μM of the test compound
RET(S891A) = RET(S891A) (Homo sapiens (Human), UniProt P07949, S891A); conditions: read-out: % Inhibition at 10 μM of the test compound
CaMK1δ = CaMK1δ (Homo sapiens (Human), UniProt Q8IU85); conditions: read-out: % Inhibition at 10 μM of the test compound
MSSK1 = MSSK1 (Homo sapiens (Human), UniProt Q9UPE1); conditions: read-out: % Inhibition at 10 μM of the test compound
p70S6Kβ = p70S6Kβ (Homo sapiens (Human), UniProt Q9UBS0); conditions: read-out: % Inhibition at 10 μM of the test compound
WNK2 = WNK2 (Homo sapiens (Human), UniProt Q9Y3S1); conditions: read-out: % Inhibition at 10 μM of the test compound
HGK = HGK (Homo sapiens (Human), UniProt O95819); conditions: read-out: % Inhibition at 10 μM of the test compound
BRK = BRK (Homo sapiens (Human), UniProt Q13882); conditions: read-out: % Inhibition at 10 μM of the test compound
MUSK = MUSK (Homo sapiens (Human), UniProt O15146); conditions: read-out: % Inhibition at 10 μM of the test compound
KIT(D816E) = KIT(D816E) (Homo sapiens (Human), UniProt P10721, D816E); conditions: read-out: % Inhibition at 10 μM of the test compound
EPHB1 = EPHB1 (Homo sapiens (Human), UniProt P54762); conditions: read-out: % Inhibition at 10 μM of the test compound
PKACα = PKACα (Homo sapiens (Human), UniProt P17612); conditions: read-out: % Inhibition at 10 μM of the test compound
PKACβ = PKACβ (Homo sapiens (Human), UniProt P22694); conditions: read-out: % Inhibition at 10 μM of the test compound
MARK1 = MARK1 (Homo sapiens (Human), UniProt Q9P0L2); conditions: read-out: % Inhibition at 10 μM of the test compound
ALK(L1152insT) = system: ALK(L1152insT)
Method: Briefly, a selection of compounds was screened against a panel of kinases at a single concentration of 10 μM. […] This was completed using one of two assays, depending on the kinase being examined: 1) IMAP Assay. A solution of 4× inhibitor, 4× substrate/ATP/metal solution and 2× kinase solution was prepared with assay buffer (20 mM HEPES, 0.01% Tween-20, 2 mM DTT, pH 7.4) and mixed, then incubated in 384-well black plates for 1 hour at room temperature. The IMAP binding reagent (IMAP Screening Express kit; Molecular Devices) was added to each well and incubated for 30 minutes. […] 2) Off-Chip Mobility Shift Assay (MSA). A solution of 4× inhibitor, 4× substrate/ATP/metal solution and 2× kinase solution was prepared with assay buffer (20 mM HEPES, 0.01% Triton X-100, 2 mM DTT, pH 7.5) and mixed, then incubated in 384-well plates for 1 or 5 hours depending on the kinase, at room temperature. Termination buffer (QuickScout Screening assist MSA; Carna Biosciences) was added to each well. The entire reaction mixture was then applied to a LabChip3000 system (Caliper Life Science), and the product and substrate peptide peaks were separated and quantified. […] The entire reaction mixture was then applied to a LabChip3000 system (Caliper Life Science), and the product and substrate peptide peaks were separated and quantified.

BRSK2 = BRSK2 (Homo sapiens (Human), UniProt Q8IWQ3); conditions: read-out: % Inhibition at 10 μM of the test compound
PYK2 = PYK2 (Homo sapiens (Human), UniProt Q14289); conditions: read-out: % Inhibition at 10 μM of the test compound
MST4 = MST4 (Homo sapiens (Human), UniProt Q9P289); conditions: read-out: % Inhibition at 10 μM of the test compound
MARK3 = MARK3 (Homo sapiens (Human), UniProt P27448); conditions: read-out: % Inhibition at 10 μM of the test compound
KIT(T670I) = KIT(T670I) (Homo sapiens (Human), UniProt P10721, T670I); conditions: read-out: % Inhibition at 10 μM of the test compound
KIT(D816V) = KIT(D816V) (Homo sapiens (Human), UniProt P10721, D816V); conditions: read-out: % Inhibition at 10 μM of the test compound
CLK1 = CLK1 (Homo sapiens (Human), UniProt P49759); conditions: read-out: % Inhibition at 10 μM of the test compound
CaMK2δ = CaMK2δ (Homo sapiens (Human), UniProt Q13557); conditions: read-out: % Inhibition at 10 μM of the test compound
IRAK1 = IRAK1 (Homo sapiens (Human), UniProt P51617); conditions: read-out: % Inhibition at 10 μM of the test compound
BMX = BMX (Homo sapiens (Human), UniProt P51813); conditions: read-out: % Inhibition at 10 μM of the test compound
PKCβ2 = PKCβ2 (Homo sapiens (Human), UniProt P05771); conditions: read-out: % Inhibition at 10 μM of the test compound
PKCα = PKCα (Homo sapiens (Human), UniProt P17252); conditions: read-out: % Inhibition at 10 μM of the test compound

Chain of GSK3β (P49841 whole entry): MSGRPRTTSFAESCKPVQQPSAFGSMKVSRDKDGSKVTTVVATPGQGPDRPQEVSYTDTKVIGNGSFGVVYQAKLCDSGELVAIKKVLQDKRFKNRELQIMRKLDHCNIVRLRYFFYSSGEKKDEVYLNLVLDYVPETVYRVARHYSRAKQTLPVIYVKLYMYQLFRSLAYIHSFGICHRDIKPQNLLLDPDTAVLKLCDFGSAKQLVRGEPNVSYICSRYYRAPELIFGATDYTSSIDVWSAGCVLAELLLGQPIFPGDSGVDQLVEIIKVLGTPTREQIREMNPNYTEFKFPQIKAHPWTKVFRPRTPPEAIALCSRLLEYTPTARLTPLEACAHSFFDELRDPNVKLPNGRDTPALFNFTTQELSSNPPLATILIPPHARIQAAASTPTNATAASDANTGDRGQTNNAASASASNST
Chain of CaMK1δ (Q8IU85 whole entry): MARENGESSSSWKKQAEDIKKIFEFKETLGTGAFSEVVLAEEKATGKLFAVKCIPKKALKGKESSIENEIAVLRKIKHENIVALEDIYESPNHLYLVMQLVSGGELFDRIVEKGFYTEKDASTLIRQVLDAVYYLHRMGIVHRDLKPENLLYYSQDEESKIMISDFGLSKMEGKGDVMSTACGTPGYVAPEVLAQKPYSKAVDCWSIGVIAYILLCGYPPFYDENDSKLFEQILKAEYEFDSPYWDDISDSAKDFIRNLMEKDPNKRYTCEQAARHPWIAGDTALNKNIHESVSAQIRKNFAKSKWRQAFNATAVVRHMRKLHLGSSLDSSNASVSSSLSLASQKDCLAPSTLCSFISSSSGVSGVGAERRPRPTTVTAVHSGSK
Chain of ROCK1 (Q13464 whole entry): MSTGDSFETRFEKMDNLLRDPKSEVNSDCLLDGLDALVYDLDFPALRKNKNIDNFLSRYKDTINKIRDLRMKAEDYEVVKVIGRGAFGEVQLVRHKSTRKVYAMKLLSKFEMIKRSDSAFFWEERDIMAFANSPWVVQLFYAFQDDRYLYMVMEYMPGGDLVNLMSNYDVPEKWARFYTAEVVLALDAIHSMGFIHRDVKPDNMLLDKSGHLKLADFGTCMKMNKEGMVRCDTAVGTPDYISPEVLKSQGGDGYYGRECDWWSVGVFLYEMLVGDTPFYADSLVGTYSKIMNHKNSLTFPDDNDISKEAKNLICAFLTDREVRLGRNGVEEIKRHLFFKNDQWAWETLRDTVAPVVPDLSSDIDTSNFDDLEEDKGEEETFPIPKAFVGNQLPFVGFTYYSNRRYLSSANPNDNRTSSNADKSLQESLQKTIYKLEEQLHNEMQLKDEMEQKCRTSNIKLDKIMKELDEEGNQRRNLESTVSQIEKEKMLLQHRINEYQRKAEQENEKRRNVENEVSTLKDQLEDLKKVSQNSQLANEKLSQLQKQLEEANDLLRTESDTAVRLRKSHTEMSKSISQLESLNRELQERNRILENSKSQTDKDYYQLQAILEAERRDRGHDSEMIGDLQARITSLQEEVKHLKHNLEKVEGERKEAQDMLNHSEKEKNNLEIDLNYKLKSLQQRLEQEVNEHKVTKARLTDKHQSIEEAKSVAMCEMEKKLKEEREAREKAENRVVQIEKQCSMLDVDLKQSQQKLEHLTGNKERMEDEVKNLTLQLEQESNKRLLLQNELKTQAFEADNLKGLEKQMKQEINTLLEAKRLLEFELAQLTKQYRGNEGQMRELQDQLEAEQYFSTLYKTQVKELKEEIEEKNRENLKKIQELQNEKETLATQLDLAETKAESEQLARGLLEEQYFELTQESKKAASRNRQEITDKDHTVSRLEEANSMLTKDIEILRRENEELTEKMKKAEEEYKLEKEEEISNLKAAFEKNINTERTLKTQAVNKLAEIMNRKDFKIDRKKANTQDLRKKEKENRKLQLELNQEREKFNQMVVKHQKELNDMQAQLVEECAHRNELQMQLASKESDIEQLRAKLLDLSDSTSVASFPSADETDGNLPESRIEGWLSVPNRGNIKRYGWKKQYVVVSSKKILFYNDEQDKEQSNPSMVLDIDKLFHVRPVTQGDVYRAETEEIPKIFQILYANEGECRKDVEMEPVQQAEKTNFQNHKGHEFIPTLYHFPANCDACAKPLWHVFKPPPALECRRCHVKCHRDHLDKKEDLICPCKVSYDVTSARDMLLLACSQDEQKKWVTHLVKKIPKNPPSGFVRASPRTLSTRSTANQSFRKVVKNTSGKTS
Chain of RET(S891A) (P07949 29-1114 S891A, species assumed): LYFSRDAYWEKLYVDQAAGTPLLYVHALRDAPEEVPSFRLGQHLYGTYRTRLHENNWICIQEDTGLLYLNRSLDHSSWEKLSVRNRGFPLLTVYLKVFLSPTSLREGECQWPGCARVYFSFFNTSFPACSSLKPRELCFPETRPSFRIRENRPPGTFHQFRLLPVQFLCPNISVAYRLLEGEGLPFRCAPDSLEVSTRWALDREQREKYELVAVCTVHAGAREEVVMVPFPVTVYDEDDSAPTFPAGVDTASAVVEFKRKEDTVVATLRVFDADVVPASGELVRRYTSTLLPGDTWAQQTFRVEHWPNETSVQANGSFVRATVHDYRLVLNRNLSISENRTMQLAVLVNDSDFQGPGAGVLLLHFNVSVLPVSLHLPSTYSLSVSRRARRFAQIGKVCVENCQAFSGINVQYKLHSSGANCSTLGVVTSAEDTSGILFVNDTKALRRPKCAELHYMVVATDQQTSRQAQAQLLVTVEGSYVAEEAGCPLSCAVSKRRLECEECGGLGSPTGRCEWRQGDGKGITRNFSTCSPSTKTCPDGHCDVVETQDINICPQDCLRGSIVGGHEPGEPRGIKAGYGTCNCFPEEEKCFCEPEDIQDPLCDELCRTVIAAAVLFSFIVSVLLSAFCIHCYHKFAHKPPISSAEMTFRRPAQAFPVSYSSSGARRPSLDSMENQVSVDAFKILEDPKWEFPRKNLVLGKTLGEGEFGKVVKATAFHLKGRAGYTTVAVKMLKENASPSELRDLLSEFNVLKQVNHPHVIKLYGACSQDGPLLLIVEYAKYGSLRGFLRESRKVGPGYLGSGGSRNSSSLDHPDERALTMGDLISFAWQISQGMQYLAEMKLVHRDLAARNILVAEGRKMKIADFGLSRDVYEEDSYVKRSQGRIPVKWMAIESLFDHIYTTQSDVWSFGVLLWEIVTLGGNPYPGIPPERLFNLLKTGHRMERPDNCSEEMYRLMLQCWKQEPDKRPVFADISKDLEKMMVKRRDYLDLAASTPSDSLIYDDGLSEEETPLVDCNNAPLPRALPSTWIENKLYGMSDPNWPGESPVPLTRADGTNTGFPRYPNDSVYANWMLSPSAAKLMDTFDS
Chain of TNIK (Q9UKE5 whole entry): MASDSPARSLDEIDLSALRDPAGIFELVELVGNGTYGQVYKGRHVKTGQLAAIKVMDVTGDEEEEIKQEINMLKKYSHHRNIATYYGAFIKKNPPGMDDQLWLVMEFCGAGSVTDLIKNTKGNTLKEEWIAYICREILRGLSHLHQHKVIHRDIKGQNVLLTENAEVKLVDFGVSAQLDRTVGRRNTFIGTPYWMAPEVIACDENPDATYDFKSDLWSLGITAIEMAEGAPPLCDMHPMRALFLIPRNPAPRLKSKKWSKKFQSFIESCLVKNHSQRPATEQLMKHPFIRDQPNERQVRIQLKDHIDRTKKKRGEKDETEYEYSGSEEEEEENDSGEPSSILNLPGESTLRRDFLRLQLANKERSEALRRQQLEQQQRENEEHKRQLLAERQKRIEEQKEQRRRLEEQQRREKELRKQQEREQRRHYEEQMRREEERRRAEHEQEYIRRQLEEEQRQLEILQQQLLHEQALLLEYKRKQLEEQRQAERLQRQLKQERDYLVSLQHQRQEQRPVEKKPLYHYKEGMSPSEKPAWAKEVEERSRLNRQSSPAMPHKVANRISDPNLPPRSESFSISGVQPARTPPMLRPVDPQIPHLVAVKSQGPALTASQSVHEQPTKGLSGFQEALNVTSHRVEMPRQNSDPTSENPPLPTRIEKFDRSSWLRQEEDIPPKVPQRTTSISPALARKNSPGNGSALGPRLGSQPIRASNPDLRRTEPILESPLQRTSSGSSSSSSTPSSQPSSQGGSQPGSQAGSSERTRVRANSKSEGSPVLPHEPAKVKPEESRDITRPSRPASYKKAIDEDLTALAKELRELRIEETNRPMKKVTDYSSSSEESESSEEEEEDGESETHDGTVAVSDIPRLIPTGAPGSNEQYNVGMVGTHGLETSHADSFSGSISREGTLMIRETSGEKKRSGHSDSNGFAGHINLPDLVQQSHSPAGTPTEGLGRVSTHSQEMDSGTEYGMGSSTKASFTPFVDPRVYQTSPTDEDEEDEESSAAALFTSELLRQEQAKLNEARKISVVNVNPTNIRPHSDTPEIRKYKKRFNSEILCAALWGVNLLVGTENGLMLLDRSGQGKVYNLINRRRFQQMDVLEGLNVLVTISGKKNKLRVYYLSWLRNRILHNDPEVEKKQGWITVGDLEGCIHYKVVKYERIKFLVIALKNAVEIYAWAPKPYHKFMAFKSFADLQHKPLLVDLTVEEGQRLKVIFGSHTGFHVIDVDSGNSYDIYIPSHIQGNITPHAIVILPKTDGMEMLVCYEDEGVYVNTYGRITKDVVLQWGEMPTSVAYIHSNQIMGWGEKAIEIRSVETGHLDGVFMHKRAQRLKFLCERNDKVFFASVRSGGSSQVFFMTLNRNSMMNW
Chain of MST4 (Q9P289 whole entry): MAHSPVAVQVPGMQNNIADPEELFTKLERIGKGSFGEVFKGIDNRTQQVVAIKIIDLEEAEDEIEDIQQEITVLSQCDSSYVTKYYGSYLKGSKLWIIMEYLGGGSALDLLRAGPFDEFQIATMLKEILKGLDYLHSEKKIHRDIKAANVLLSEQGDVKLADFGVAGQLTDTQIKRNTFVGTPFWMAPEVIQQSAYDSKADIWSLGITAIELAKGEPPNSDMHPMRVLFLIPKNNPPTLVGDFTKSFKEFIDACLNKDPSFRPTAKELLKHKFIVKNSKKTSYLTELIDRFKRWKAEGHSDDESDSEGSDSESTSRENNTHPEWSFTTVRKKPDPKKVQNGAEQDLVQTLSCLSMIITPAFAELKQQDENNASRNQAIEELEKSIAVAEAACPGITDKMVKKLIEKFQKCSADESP

For `CCC1(c2ccccc2)C2=C(CC(C)(C)CC2=O)Nc2ncsc21` (centres unmarked) [Compound 1, 9-Ethyl-6,6-dimethyl-9-phenyl-5,6,7,9-tetrahydrothiazolo[4,5-b]quinolin-8(4H)-one], the IC50 (GSK3β; GSK3β) was 137 nM, the inhibition at 10 µM (GSK3β; read-out: % Inhibition at 10 μM of the test compound) was 97.7% and the inhibition at 10 µM (EGFR) was 21.2%. The inhibition at 10 µM (FGR) was 10.6%, the inhibition at 10 µM (skMLCK) was 9.7% and the inhibition at 10 µM (PKCη) was 9.3%. It also gave an inhibition at 10 µM (TNIK) of 8.6%, an inhibition at 10 µM (MLK3_Cascade) of 7.3% and an inhibition at 10 µM (ROCK1) of 7%. For the same compound, the inhibition at 10 µM (PAK6) was 3.9%, the inhibition at 10 µM (MAP3K2_Cascade) was 3.4% and the inhibition at 10 µM (YES) was 3.3%. It also gave an inhibition at 10 µM (CaMK2β) of 2.8%, an inhibition at 10 µM (PKD3) of 2.7% and an inhibition at 10 µM (IKKβ) of 2.3%. The inhibition at 10 µM (RET(S891A)) was 1.4%, the inhibition at 10 µM (CaMK1δ) was 1.3% and the inhibition at 10 µM (MSSK1) was 1.2%. The inhibition at 10 µM (p70S6Kβ) was 0.5%, the inhibition at 10 µM (WNK2) was 0.5% and the inhibition at 10 µM (HGK) was 0.4%. The inhibition at 10 µM (BRK) was 0.3%, the inhibition at 10 µM (MUSK) was 0% and the inhibition at 10 µM (KIT(D816E)) was -0.2%. For the same compound, the inhibition at 10 µM (EPHB1) was -0.4%, the inhibition at 10 µM (PKACα) was -0.6% and the inhibition at 10 µM (PKACβ) was -0.8%. The inhibition at 10 µM (MARK1) was -1.7%, the “% Inhibition at 10 μM of the test compound” value (ALK(L1152insT)) was −2.3% and the inhibition at 10 µM (BRSK2) was -2.9%. The inhibition at 10 µM (PYK2) was -3.1%, the inhibition at 10 µM (MST4) was -3.3% and the inhibition at 10 µM (MARK3) was -3.3%. For the same compound, the inhibition at 10 µM (KIT(T670I)) was -4.2%, the inhibition at 10 µM (KIT(D816V)) was -4.8% and the inhibition at 10 µM (CLK1) was -7.2%. The inhibition at 10 µM (CaMK2δ) was -8.6%, the inhibition at 10 µM (IRAK1) was -8.9% and the inhibition at 10 µM (BMX) was -10.6%. For the same compound, the inhibition at 10 µM (PKCβ2) was -10.7% and the inhibition at 10 µM (PKCα) was -11%.
